Paper PMC3927586, “Protein kinase C-delta inactivation inhibits the proliferation and survival of cancer stem cells in culture and in vivo” (BMC Cancer, 2014)

Assays:
Format in all cases: cell-based, human
FN5 = assay: Tumor spheroid growth, FN5 melanoma; conditions: p < 0.001
MCF 10C cells [1] = assay: Tumor spheroid formation, MCF 10C; conditions: spheroids enumerated at 10 days
Description: (§1) Tumor self-renewing and anchorage-independent spheroids were obtained by culturing breast cancer cells MCF7, Hs587T and MDA231; melanoma cells SBcl2 and FM6; human breast cancer stem cells and pancreatic cancer stem cells in stem cell-selective conditions according to the manufacturer’s instructions (StemCell Technologies, Tukwila, WA). Briefly, cancer and cancer stem cells were propagated in 6-well ultra-low adherent plates (Corning) in Complete MammoCult Medium (Human) by adding 50 mL of MammoCult Proliferation Supplements to 450 mL of MammoCult Basal Medium (StemCell Technologies). The following were added to obtain Complete MammoCult Medium: 4 ug/mL Heparin (StemCell Technologies), 0.48 μg/mL hydrocortisone (StemCell Technologies), 200 U penicillin/ml; and 200 μg streptomycin/ml (Invitrogen).
Figure 5 Effects of PKCδ inhibitors on growth and spheroid formation in non-transformed and transformed human breast epithelial cells. […] After 24, 48 and 72 hr of exposure, cell mass was evaluated by MTT assay. […] (C) MCF 10A and MCF 10C cells were plated at 10,000 cells per well in tumor spheroid media, and spheroid formation was assessed at days 10 and 21. […]

MCF 10C cells [2] = assay: Cell proliferation (MTT) of transformed breast epithelial cells; conditions: for IC50: Homo sapiens, Epithelial cell, 72 hr, read-out: IC50 for the MCF 10C derivative; for concentration with significant effect on MCF 10C cells: as early as 24 hr
Description: Cell proliferation was assessed using an MTT [3-(4,5-dimethylthiazol-2-yl)-2,5-diphenyltetrazolium bromide] assay (Roche, Mannheim, Germany). The number of viable cells growing in a single well on a 96-well microtiter plate was estimated by adding 10 μl of MTT solution (5 mg/ml in phosphate-buffered saline [PBS]). After 4 h of incubation at 37°C, the stain was diluted with 100 μl of dimethyl sulfoxide. The optical densities were quantified at a test wavelength of 570 nm and a reference wavelength of 690 nm on a multiwell spectrophotometer. In some assays, MTS was used as substrate (Promega, Madison, WI), and the absorbance of the product was monitored at 490 nm. Cell enumeration was carried out using a hemocytometer, and viable cells identified by trypan blue exclusion.
Figure 5 Effects of PKCδ inhibitors on growth and spheroid formation in non-transformed and transformed human breast epithelial cells. MCF 10A cells and cells from the derived tumorigenic line MCF 10C (also called M3), were grown to 80% confluence in 96-well plates and then exposed to rottlerin at concentrations ranging from 1 to 20 μM (A) or to BJE6-106 at concentrations ranging from 0.1 to 20 μM (B). The corresponding equivalent volume of solvent (DMSO) was used as a vehicle control (Vehicle). After 24, 48 and 72 hr of exposure, cell mass was evaluated by MTT assay. Control (vehicle) values were normalized to 100%. Error bars represent SEM. p values for comparison between vehicle and PKCδ inhibitors on MCF 10A cell number only reached significance (p < 0.05) at 48 hr at 20 μM for rottlerin, and at 1 μM for BJE6-106. In contrast, significant effects of the inhibitors on the MCF 10C cells were observed as early as 24 hr for rottlerin (at 5 μM) and for BJE6-106 (at 0.1 μM). (C) MCF 10A and MCF 10C cells were plated at 10,000 cells per well in tumor spheroid media, and spheroid formation was assessed at days 10 and 21. Representative photographs are shown. (D) MCF 10C cells were plated at 10,000 cells per well in tumor spheroid media, in the presence of rottlerin (5 μM), or BJE6-106 (1 μM or 5 μM), or DMSO vehicle (Control). Tumor spheroids were enumerated at 10 days. Representative photographs are shown. (E) Spheroid numbers were normalized to the number of spheroids in the control cultures (assigned an arbitrary value of 100%) and plotted. Error bars represent SEM. p values for comparison between vehicle and rottlerin or BJE6-106 effects on spheroid number were significant (p < 0.001).

[3] = system: breast cancer stem cells (BCSC); assay: Tumor spheroid formation, BCSC; conditions: added to culture medium, 96 hr, p≤0.001
Description: as §1
Figure 4 Effects of PKCδ inhibitors on human tumor cell spheroid formation. […] Tumor spheroids and adherent cells were collected at 96 hr, stained for CD24 and CD44, and analyzed by flow cytometry. […] After 24, 48 and 72 hr of exposure, cell mass was evaluated by MTT assay. […] Viable cells were enumerated and re-plated in media without BJE6-206, and spheroid numbers were quantitated 96 hr later. p values for comparison between vehicle and BJE6-106 effects on spheroid number were significant after 6 hr of exposure (p≤0.02), and remained significant at all time points thereafter. […]

Row | Structure (SMILES) | inhibition of tumor spheroid growth, FN5 (FN5; BJE6-106 at 0.5-1.0 μM) [%] | effect on growth of MCF 10C spheroids (MCF 10C cells [1]; BJE6-106 at 1 μM) | IC50 (MCF 10C cells [2]) [nM] | concentration with significant effect on MCF 10C cells (MCF 10C cells [2]) [µM] | effect on formation of spheroids, BCSC [3] | inhibition at 10 µM (FN5; Homo sapiens, rottlerin at 10 μM) [%] | effect on growth of MCF 10C spheroids (MCF 10C cells [1]; rottlerin at 10 μM)
1 | CC1(C)C=Cc2cc(CCn3c4ccccc4c4ccccc43)cc(C=O)c2O1 [BJE6-106, 6-(2-(9H-carbazol-9-yl)ethyl)-2,2-dimethyl-2H-chromene-8-carbaldehyde] | > 99.5 | efficiently inhibited | ~100 | 0.1 | very efficiently inhibited | – | –
2 | CC(=O)c1c(O)c(C)c(O)c(Cc2c(O)c3c(c(C(=O)/C=C/c4ccccc4)c2O)OC(C)(C)C=C3)c1O [rottlerin, Rottlerin, reference compound] | – | – | ~1000 | 5 | very efficiently inhibited | > 99.5 | efficiently inhibited
